Assay results taken from PubChem BioAssay AID179 (DTP/NCI, 2004).
Active and inactive are the calls of the source.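 Rule for the calls: active = compounds giving half or more protection of infected cells from virus-caused growth loss, again on retest; inactive = the rest.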 Where a SMILES comes first, the peptide text is derived from it.

System: CEM cells HIV-1 protection, formazan growth assay
Assay: NCI AIDS Antiviral Assay
Settings: for IC50: measured here: growth of uninfected CEM cells
Method in brief: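 Steps: treat uninfected and HIV-1-infected human CEM cells at five drug levels; quantify growth by soluble formazan; retest any compound reaching 50% protection; classify actives from the retest.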

Compound | EC50 [µM] | IC50 [µM] | outcome
CC1COC(C)(C)P(c2ccccc2)C1 (centres undefined) | > 1120 | > 1120 | 
CCOC(=O)CCC(NC(=O)c1ccc(NCc2ccc3nc(-c4ccccc4)c(Cl)nc3c2)cc1)C(=O)OCC (centres undefined) | > 4.79 | > 4.79 | 
COc1ccc2c(c1)OC1c3ccccc3OCC21 (centres undefined) |  |  | inactive
CC(C)(C)OC(=O)N1Cc2cc(O)ccc2C[C@H]1C(=O)O | > 200 | > 200 | 
CCOC(=O)C(Cc1ccc2c(c1)CCC2)Cc1ccc2c(c1)CCC2 | > 200 | 1.62 | 
Nc1ccc(N=Nc2ccc(/C=C/c3ccc(N=Nc4ccc(N)c5ccccc45)cc3S(=O)(=O)O)c(S(=O)(=O)O)c2)c2ccccc12 | > 50.1 | 37.2 | 
Cc1ccc(S[C@@](C=O)(NC(=O)OCc2ccccc2)C(F)(F)F)cc1 |  |  | inactive
O=C1/C(=C/c2ccc([N+](=O)[O-])cc2)CCCc2ccccc21 | > 141 | > 141 | 
COc1cccc(/C=N/[N-]C(N)=O)c1[O-].[Cu+2].[OH3+].c1cnc2c(c1)ccc1cccnc12 | > 39.8 | 16.2 | 
S=c1sc(-c2ccc(Cl)cc2)nn1CSc1nc2ccccc2[nH]1 | > 200 | 31.6 | 
COc1cc(C2C(Cl)C(=O)N2NC(=O)Cc2ccccc2)cc(Br)c1O (centres undefined) | > 30.9 | > 30.9 | 
CCOCNC=O | > 2400 | 1480 | 
COC(=O)[C@H](Cc1c[nH]c2ccccc12)NP(=O)(O)CCC1OC(n2cc(C)c(=O)[nH]c2=O)CC1N=[N+]=[N-] (some centres undefined) | > 200 | > 200 | 
COc1ccc(-n2cnc3c(NC(Cc4ccccc4)C(=O)O)ncnc32)cc1 (centres undefined) | > 200 | 2 | 
O=C(c1cccnc1)c1cc(-c2ccccn2)c(=O)n2ccccc12 | > 200 | > 200 | 
CCN(CC)CCOc1ccc(/C(=C(\Cl)c2ccccc2)c2ccccc2)cc1 | > 200 | 5.5 | 
COc1ccc(OC)c(C[P+](c2ccccc2)(c2ccccc2)c2ccccc2)c1 | > 200 | 1.2 | 
Cc1nc2c(nc1C)C(=O)C(N)=CC2=O |  |  | inactive
O=C1CC(c2ccccc2)NCN1 (centres undefined) |  |  | inactive
COP1(=O)NCc2ncccc2O1 (centres undefined) | > 200 | > 200 | 
CCNC(=S)N/N=C(\C)c1ccccn1 | > 0.2 | 0.0158 | 

Compound | EC50 [µM] | IC50 [µM] | outcome
NS(=O)(=O)c1ccc(NC2=CC(=O)C(=O)c3ccccc32)cc1 | > 30.2 | > 30.2 | 
Cc1cc(NC(=O)c2ccc(NC(=O)c3ccccc3)cc2)ccc1N=Nc1ccc(N=Nc2ccc3c(O)cc(S(=O)(=O)O)cc3c2)c2cc(S(=O)(=O)O)ccc12 | 6.17 | 50.1 | 
c1ccc(N2CC3CSc4c(ccc5ccccc45)C3=N2)cc1 (centres undefined) | > 200 | 162 | 
CC(=O)CSc1c(-c2ccccc2)c(=O)n(-c2ccccc2)c(=S)n1-c1ccccc1 | > 200 | 79.4 | 
Cc1ccc(S(=O)(=O)NCCSS(=O)(=O)c2ccc(C)cc2)cc1 | > 25.7 | > 25.7 | 
O=C1OC[C@@H]2CCCN2Cc2ccccc21 | > 87.1 | > 87.1 | 
C/C(C=O)=C\c1ccc(F)cc1 | > 219 | > 219 | 
COc1cc(C)c2c(c1C)OC(=O)c1c(C)c(Cl)c(O)c(C=O)c1O2 | > 49 | > 49 | 
Cc1cccc(C)c1NC(=O)C(=O)C(c1ccccc1Cl)S(=O)(=O)Cc1ccccc1Cl (centres undefined) | 151 | > 200 | 
CN1CN(c2ccccc2)C2(CCN(C(=O)OC(C)(C)C)CC2)C1=O | > 100 | > 100 | 
O=C1NC2c3c(I)sc(I)c3C(=O)C2O1 (centres undefined) | 0.603 | 1.12 | 
O=[N+]([O-])c1cccnc1NCC1(CO)CC(Cc2ccccc2)C1 (centres undefined) | > 200 | 110 | 
O=C(COc1ccc(OCC(=O)N2C(=O)CSC2=Nc2ccccc2)cc1)N1C(=O)CSC1=Nc1ccccc1 | > 200 | 25.7 | 
Cc1cc(Br)ccc1NC1=CC(=O)C(=O)c2ccccc21 | > 2.19 | > 2.19 | 
CN1C/C(=C\C=C\c2ccccc2)C(=O)/C(=C/C=C/c2ccccc2)C1 | > 7.24 | > 7.24 | 
C=C1CC(C)(COc2ccc3ccc(=O)oc3c2)OC1=O (centres undefined) | > 20 | 0.275 | 
O=[N+]([O-])c1ccc(Cl)c([N+](=O)[O-])c1 | > 200 | 3.31 | 
COC(=O)C1C(C(=O)OC)C2(OC)c3ccccc3-c3ccccc3C12 (centres undefined) | > 200 | 21.4 | 
Cc1cc2nc3[nH]c4ccccc4c3nc2cc1C | > 20.9 | > 20.9 | 
ClC(Cl)[Si]12OCCN(CCO1)CCO2 |  |  | inactive
Cc1ccc(NC(=O)CC/C(CC(=O)C(C)(C)C)=N\NC(=O)C[n+]2ccccc2)cc1C | > 75.9 | > 75.9 | 

Compound | EC50 [µM] | IC50 [µM] | outcome
c1ccc2c(c1)SCCCS2 | > 39.8 | > 39.8 | 
CCn1c(=O)c2nc(SC)sc2n(-c2ccc(C)cc2)c1=O |  |  | inactive
O=C(O)CN(c1ccc(F)cc1)S(=O)(=O)c1ccccc1 |  |  | inactive
CCN(CC)C(=O)C/C(C)=N/NC(=O)c1ccncc1 | > 93.3 | > 93.3 | 
O=C(Nc1ccc(Cl)c(Cl)c1)O/N=C\c1c(Cl)ccc([N+](=O)[O-])c1Cl |  |  | inactive
Cc1nc2ccc3c(ccc4nc(C)c(N=Nc5ccc(C(=N)N)cc5)c(O)c43)c2c(O)c1N=Nc1ccc(C(=N)N)cc1 | > 200 | 11 | 
CC1(C)CC23CC(C)(C)c4cccc(c42)OCc2ccc4ccc5ccc(nc5c4n2)COc2cccc1c23 | > 50.1 | > 50.1 | 
O=C1C(N=Nc2ccc([N+](=O)[O-])cc2)Sc2nc3ccccc3n21 (centres undefined) | > 200 | 178 | 
NC(Cc1ccc(O)cn1)C(=O)NC(C(=O)O)c1ccccc1 (centres undefined) | > 200 | > 200 | 
COC(=O)/C=C1\C(CO[Si](C)(C)C(C)(C)C)OC(n2ccc(=O)[nH]c2=O)C1O (centres undefined) | > 200 | 6.17 | 
CC1(C)N=C(/C(Cl)=[N+](/[O-])C(=O)c2ccc(Cl)cc2)C(C)(C)N1O | > 100 | 8.91 | 
O=S(=O)(Nc1ncccn1)c1ccc(N=NSC2=NC=NC3=NC=NC32)cc1 (centres undefined) | > 200 | 5.25 | 
O=Nc1c(-c2ccccc2)nc2cnccn12 | > 200 | 5.89 | 
O=c1[nH]cnc2c1nnn2CCCn1nnc2c(=O)[nH]cnc21 | > 200 | > 200 | 
C[CH2][Sn]([CH2]C)([O]C(=O)c1cccc(OC)c1)[O][Sn]([CH2]C)([CH2]C)[O]C(=O)c1cccc(OC)c1 | > 38.9 | 16.6 | 
O=[N+]([O-])c1ccc2nc(Nc3ccccc3)c(Nc3ccccc3)nc2c1 |  |  | inactive
O=C(Cc1c(C(=O)Nc2ccccc2)sc(C(=O)Nc2ccccc2)c1CC(=O)Nc1ccccc1)Nc1ccccc1 |  |  | inactive
COc1ccc(Nc2nc3c(s2)c(C)c(O)c2ccccc23)cc1 | > 2.88 | 0.851 | 
O=C1C2CCN(CC2)C1CN1CCOCC1 (centres undefined) |  |  | inactive
CC1(C)CC2=C(Sc3ccccc3N2)C(=O)C1C(=O)C(=O)Nc1cc(Cl)ccc1Cl (centres undefined) | > 148 | 64.6 | 
CC1NC(=O)CNC(=O)CNC(=O)C(Cc2ccc(O)cc2)NC(=O)C(C(C)C)NC(=O)C(C)NC1=O (centres undefined) (cyclo(GGAAVY); configuration not given here) |  |  | inactive
